{
  "source": "paper PMC8808171",
  "about": "“Nonselective TRPC channel inhibition and suppression of aminoglycoside-induced premature termination codon readthrough by the small molecule AC1903” (The Journal of Biological Chemistry, 2022)",
  "key": {"[1]": {"system": "DMS-114 cells (TP53 R213X)", "experiment": "G418-induced PTC readthrough (full-length p53, capillary electrophoresis Western) in DMS-114 cells", "type": "cell-based, human", "conditions": "for reduction of PTC readthrough compared with G418 alone: then 400 μg/ml G418 (Fig. 2A)", "source_text": "Variation in PTC readthrough response has been reported among individuals or cell lines with different nonsense mutations. Although this in part highlights the importance of the stop codon and its surrounding sequence as well as the physical location of the nonsense mutation in the mRNA sequence, understanding the contribution of other underlying genetic variations becomes more complicated. To rule out the effect of the sequence and position of nonsense mutations on response variation to potential PTC readthrough modulators, we studied two cancer cell lines, DMS-114 and TC-71, with identical homozygous nonsense mutation R213X in their TP53 gene. […] To find out whether the reduced response to G418 in TC-71 cells was associated with lower intracellular levels of G418, we measured concentrations of G418 in both cell lines at 0, 8 and 24 h post exposure to G418 (100 μg/ml).\nFigure 1 Effect of TRPC inhibitors on G418 induced PTC readthrough. A, DMS-114 and TC-71 cell lines with homozygous TP53 nonsense mutation (R213X) were exposed to indicated concentrations of G418 for 24 h and p53 levels (full-length, FL-p53; truncated, TR-p53) were measured. B, 100 μg/ml G418 was added to DMS-114 and TC-71 cells and its total intracellular levels were measured at indicated time points (n = 5; data normalized to the highest response in each experiment; bars represent mean ± SD). C, DMS-114 cells were preincubated with indicated concentrations of TRPC inhibitors GFB-8438 (GFB), SAR7334 (SAR), SKF96365 (SKF), 2-APB, or AC1903 for 3 h followed by exposure to 400 μg/ml G418 for another 3 h. At 24 h cell lysates were prepared and p53 levels were measured. In panels A and C, protein levels were measured by automated capillary electrophoresis Western analysis (using vinculin and GAPDH as loading controls). Samples of cell lysates containing equal amounts of total protein were loaded in all capillaries and FL-p53 levels were expressed relative to the amount of FL-p53 in untreated cells. ∗ indicates statistically significant difference between samples according to two-way ANOVA (p < 0.05). PTC, premature termination codon; TRPC, transient receptor potential canonical.\nTo further investigate AC1903 as a suppressor of G418-induced PTC readthrough, we exposed DMS-114 and TC-71 cells to various concentrations of AC1903 for 3 h prior to exposure to 400 μg/ml G418 for another 3 h, followed by media replacement and incubation for another 18 h.\nFigure 2 Effect of AC1903 on PTC readthrough and G418 trafficking.A and B, DMS-114 (A) or TC-71 (B) cells were pretreated with indicated concentrations of AC1903 for 3 h followed by exposure to 400 μg/ml G418. After 3 h medium was replenished and at 24 h cell lysates were prepared and p53 levels were measured. C and E, DMS-114 (C) or JEB01 (E) cells were either left untreated or pretreated with 150 μM AC1903 for 3 h followed by exposure to indicated concentrations of G418 for another 3 h. At 24 h cell lysates were prepared and p53 (C) or Collagen XVII (E) levels were measured. In panels A–C, protein levels were measured by automated capillary electrophoresis Western analysis (using vinculin as loading control). In panel E, protein levels were measured by Western blot (using beta-actin as loading control). Samples of cell lysates containing equal amounts of total protein were loaded in all capillaries and FL-p53 or Collagen XVII levels were expressed relative to their respective amounts in untreated cells. D, total intracellular levels of G418 were measured in the same lysates as in (C) (n = 5; data normalized to the highest response in each experiment; bars represent mean ± SD). F, total intracellular levels of G418 were measured in the same lysates as in (E) (n = 2; data normalized to the highest response in each experiment; bars represent mean ± SD). ∗ indicates statistically significant difference between samples according to one-way ANOVA (p < 0.05). PTC, premature termination codon. […]"}, "[2]": {"system": "TRPC3, TRPC4, TRPC5, TRPC6, TRPC4–C1, TRPC5–C1, endogenous TRPC1:C4 channels", "experiment": "Summary of TRPC channel inhibition by AC1903", "type": "cell-based", "conditions": "TRPC3, TRPC4, TRPC5, TRPC6, TRPC4–C1, TRPC5–C1, endogenous TRPC1:C4 in A498; read-out: IC50 values over multiple TRPC channels", "source_text": "Nonsense mutations, which occur in ∼11% of patients with genetic disorders, introduce premature termination codons (PTCs) that lead to truncated proteins and promote nonsense-mediated mRNA decay. Aminoglycosides such as G418 permit PTC readthrough and so may be used to address this problem. However, their effects are variable between patients, making clinical use of aminoglycosides challenging. In this study, we tested whether TRPC nonselective cation channels contribute to the variable PTC readthrough effect of aminoglycosides by controlling their cellular uptake. […] In addition, our data strengthen the hypothesis that nonselective calcium channels are involved in aminoglycoside uptake.\n[Ca^2+]i recordings were carried out using the ratiometric Ca^2+ dye Fura-2. 24 h prior to experiments, cells were plated either onto black, clear bottom poly-D-lysine-coated 96-well plates (HEK cells) or clear 96-well plates (A498 cells, CHO cells) at 50,000 cells per well (HEK cells) or 20,000 cells per well (A498 cells, CHO cells). For tetracycline-inducible HEK T-REx cells, protein expression was induced with tetracycline (TRPC channels: 1 μg ml^−1; hPiezo1: 100 ng ml^−1) at this point. […]"}},
  "data": [
    {"smiles": "c1ccc(Cn2c(NCc3ccco3)nc3ccccc32)cc1", "note": "[AC1903]", "values": [
      {"measurement": "effect on G418-induced PTC readthrough", "setting": "[1]; 150 μM AC1903 3 h, then 400 μg/ml G418 (Fig. S12)", "value": "strongly reduced"},
      {"measurement": "reduction of PTC readthrough compared with G418 alone", "setting": "[1]; AC1903 50 μM 3 h", "value": 20, "unit": "%"},
      {"measurement": "suppression of G418-induced PTC readthrough", "setting": "[1]; AC1903 50 μM, 400 μg/ml G418 (Fig. 1C)", "value": "~27", "unit": "%"},
      {"measurement": "reduction of PTC readthrough compared with G418 alone", "setting": "[1]; AC1903 150 μM 3 h", "value": 74, "unit": "%"},
      {"measurement": "decrease in full-length p53", "setting": "[1]; pretreatment 150 μM AC1903, increasing concentrations of G418 (Fig. 2C)", "value": "~70", "unit": "%"},
      {"measurement": "effect on PTC readthrough of AC1903 alone", "setting": "[1]; without G418", "value": "did not affect PTC readthrough"},
      {"measurement": "IC50", "setting": "[2]", "value": "1.8 to 18", "unit": "µM"}
    ]}
  ]
}
